In article PMC11012005 (International Journal of Molecular Sciences, 2024):
Non-standard residues stand in square brackets, D forms with d. Residues, ends and D or L forms follow the SMILES beside them.

Experiments:
[1] = target: T1, human MOR (Homo sapiens, UniProt P35372); assay: Radioligand competition binding, [3H]DAMGO, CHO-hMOR cell membranes; settings: read-out: Opioid Receptor Binding (Ki, nM) MOR
T1 construct: expressed in transfected cells; host or cells: CHO cells (CHO-hMOR), gift of Dr. Lawrence Toll, SRI International

[2] = target: T2, human DOR (Homo sapiens, UniProt P41143); assay: Radioligand competition binding, [3H]DPDPE, CHO-hDOR cell membranes
T2 construct: expressed in transfected cells; host or cells: CHO cells (CHO-hDOR), gift of Dr. Lawrence Toll, SRI International

[3] = target: T3, human KOR (Homo sapiens, UniProt P41145); assay: Radioligand competition binding, [3H]U69,593, CHO-hKOR cell membranes; settings: for Ki: CHO-hKOR membranes, [3H]U69,593 1 nM, mean ± SEM, n = 3, read-out: Opioid Receptor Binding (Ki, nM) KOR
T3 construct: expressed in transfected cells; host or cells: CHO cells (CHO-hKOR), gift of Dr. Lawrence Toll, SRI International

[4] = target: T4, human NOP receptor (Homo sapiens, UniProt P41146); assay: Radioligand binding, [3H]nociceptin, CHO-hNOP cell membranes; settings: for Ki: CHO-hNOP membranes, [3H]nociceptin 0.1 nM, n = 3, read-out: Opioid Receptor Binding (Ki, nM) NOP
T4 construct: expressed in transfected cells; host or cells: CHO cells (CHO-hNOP), gift of Dr. Lawrence Toll, SRI International

[5] = target: T1, human MOR; assay: [35S]GTPγS binding assay, CHO-hMOR cell membranes; assay type: biochemical; settings: for % stim.: relative to reference MOR agonist DAMGO, mean ± SEM, n = 3–4
Description: All data are presented as mean ± SEM. A p < 0.05 was considered statistically significant.

[6] = test system: mice; assay: Rotarod test after s.c. administration; assay type: in vivo; settings: 7.8 and 39 µmol/kg, any time point, vs. saline
Procedure: (§1) Experiments were performed with male CD1 mice (8–10 weeks old, 30–35 g body weight) purchased from Janvier Labs (Le Genest-Saint-Isle, France). All animal care and experimental procedures were in accordance with the ethical guidelines for the animal welfare standards of the European Communities Council Directive (2010/63/EU) and were approved by the Committee of Animal Care of the Austrian Federal Ministry of Science and Research. Mice were group-housed (maximum of 5 animals per cage) in a temperature- (21–22 °C) and humidity-controlled (60–70%) specific pathogen-free room with a 12 h light/dark cycle and with free access to food and water. LENART01 and naloxone were prepared in sterile physiological 0.9% saline solution. Tested doses of LENART01 were 0.78, 3.9, 7.8 and 39 µmol/kg (1, 5, 10 and 50 mg/kg, respectively). LENART01 or vehicle (saline) were s.c. administered in a volume of 10 µL/g body weight.
Animals were accustomed to the equipment in two training sessions (30 min apart) one day before testing. […] The time spent on the drum was recorded for each mouse before (baseline) and after the s.c. administration of saline or test compound (i.e., 30, 60 and 120 min). […] The rotarod data are expressed as percentage (%) changes from the rotarod latencies obtained before (baseline, B) and after drug administration (test, T) and were calculated as follows: 100 × (T/B). […]

[7] = test system: mice; assay: Naloxone-precipitated withdrawal syndrome after chronic s.c. treatment; assay type: in vivo; settings: 7.8 µmol/kg s.c. twice daily for 5 days; naloxone 1 mg/kg s.c. two hours after last injection; vs. saline
Procedure: as §1, with “Tested doses of LENART01 were 0.78, 3.9, 7.8 and 39 µmol/kg (1, 5, 10 and 50 mg/kg, respectively). LENART01 or vehicle (saline) were s.c. administered in a volume of 10 µL/g body weight.” left out
(§2) Opioid physical dependence was assessed using naloxone-induced withdrawal syndrome in mice as described previously. […] Animals were immediately placed in clear acrylic cylinders, and signs of opioid withdrawal were recorded for 15 min. Monitored behaviors included vertical jumps, paw tremor, head shakes, urine output, the presence/absence of diarrhea, feces output and body weight loss. For each mouse, a global withdrawal score was calculated by summing the values obtained for each sign (one point was assigned to every 3 jumps and 5 paw tremors, respectively, whereas all other signs were given the absolute values recorded during the test). […]

[8] = Body weight changes during chronic s.c. treatment; assay type: in vivo, mice; settings: chronic administration of 7.8 µmol/kg s.c. twice daily for 5 days, vs. saline
Procedure: as §1, with “Tested doses of LENART01 were 0.78, 3.9, 7.8 and 39 µmol/kg (1, 5, 10 and 50 mg/kg, respectively). LENART01 or vehicle (saline) were s.c. administered in a volume of 10 µL/g body weight.” left out
as §2

[9] = Pharmacokinetic study: detection in brain homogenate by LC-DAD-MS (BBB permeability); assay type: in vivo; settings: 7.8 and 39 µmol/kg s.c., mice, brains two hours after treatment
Procedure: as §1
Two hours after the s.c. administration of LENART01 (doses of 7.8 and 39 µmol/kg), the mice were sacrificed and the brains were removed, washed with sterile physiological 0.9% saline and frozen in dry ice until use. […] The MS spectra were recorded in the negative ion mode only. The UV spectra were recorded over the range of 200–600 nm. […] The presence of the analyzed compound was checked by the monitoring of its pseudomolecular ion eluting at ca. 10 min. […]

[10] = test system: mice; settings: s.c., 31 µmol/kg (10 mg/kg); cited from earlier work
[11] = test system: mice; settings: repeated s.c. administration, 15 µmol/kg (5 mg/kg); cited from earlier work

CSCC[C@H](NC(=O)[C@H](Cc1ccccc1)NC(=O)[C@H](Cc1c[nH]cn1)NC(=O)CNC(=O)[C@H](CO)NC(=O)[C@@H]1CCCN1C(=O)[C@H](Cc1ccc(O)cc1)NC(=O)CNC(=O)[C@H](Cc1ccccc1)NC(=O)[C@@H](C)NC(=O)[C@@H](N)Cc1ccc(O)cc1)C(N)=O [LENART01] (H-Y[dA]FGYPSGHFM-NH2)
Ki [1]: 11 ± 1.5 nM | Ki ([2]; CHO-hDOR membranes, [3H]DPDPE 1 nM, mean ± SEM, n = 3, read-out: Opioid Receptor Binding (Ki, nM) DOR): 227 ± 47 nM | Selectivity Ki Ratios DOR/MOR ([2]; Ki ratio DOR/MOR): 21 | Ki [3]: 1310 ± 226 nM | Selectivity Ki Ratios KOR/MOR ([3]; Ki ratio KOR/MOR): 119 | Ki [4]: > 10000 nM | Selectivity Ki Ratios NOP/MOR ([4]; Ki ratio NOP/MOR): >900 | EC50 [5]: 48.5 ± 10.6 nM | % stim. [5]: 110 ± 7% | Effect on rotarod latencies (motor behavior) [6]: no significant alterations in the rotarod latencies | Naloxone-precipitated withdrawal signs [7]: did not induce withdrawal signs | Effect on body weights [8]: did not have any significant effect on the body weights | Transport across the BBB (signal in brain homogenate) [9]: no detectable signal

C[C@@H](NC(=O)[C@@H](N)Cc1ccc(O)cc1)C(=O)NCC(=O)N(C)[C@@H](Cc1ccccc1)C(=O)NCCO [DAMGO, reference compound]
% stim. [5]: 100%

CN1CC[C@]23c4c5ccc(O)c4O[C@H]2[C@@H](O)C=C[C@H]3[C@H]1C5 [morphine]
Effect on time on the rotarod [10]: significantly reduced time on the rotarod | Naloxone-induced withdrawal syndrome [11]: significant naloxone-induced withdrawal syndrome

C[C@@H](NC(=O)[C@@H](N)Cc1ccc(O)cc1)C(=O)N[C@@H](Cc1ccccc1)C(=O)NCC(=O)N[C@@H](Cc1ccc(O)cc1)C(=O)N1CCC[C@H]1C(=O)N[C@@H](CO)C(N)=O [Dermorphin, reference compound]
Ki [3]: 2710 ± 873 nM | Ki [4]: > 10000 nM | Specific binding to human NOP receptor ([4]; at the concentration of 10 µM, [3H]nociceptin): no substantial binding | % stim. [5]: 104 ± 8%
